Data from BindingDB's records for doi:10.1124/jpet.102.040162 (Sanofi-SynthÉLabo Recherche, 2002).
Values joined by “and” are separate entries in the source; they are usually repeats but may differ in a detail not shown here. Equal values may be shown once. Square brackets hold non-standard residues; d marks the D form. Peptide text beside a SMILES is read from it. NMeF = CN[C@@H](Cc1ccccc1)C(=O)O

Assays:
Neuromedin-K receptor [1] = molecular target: T1, Neuromedin-K receptor (Homo sapiens, UniProt P29371)
T1 sequence (P29371 whole entry): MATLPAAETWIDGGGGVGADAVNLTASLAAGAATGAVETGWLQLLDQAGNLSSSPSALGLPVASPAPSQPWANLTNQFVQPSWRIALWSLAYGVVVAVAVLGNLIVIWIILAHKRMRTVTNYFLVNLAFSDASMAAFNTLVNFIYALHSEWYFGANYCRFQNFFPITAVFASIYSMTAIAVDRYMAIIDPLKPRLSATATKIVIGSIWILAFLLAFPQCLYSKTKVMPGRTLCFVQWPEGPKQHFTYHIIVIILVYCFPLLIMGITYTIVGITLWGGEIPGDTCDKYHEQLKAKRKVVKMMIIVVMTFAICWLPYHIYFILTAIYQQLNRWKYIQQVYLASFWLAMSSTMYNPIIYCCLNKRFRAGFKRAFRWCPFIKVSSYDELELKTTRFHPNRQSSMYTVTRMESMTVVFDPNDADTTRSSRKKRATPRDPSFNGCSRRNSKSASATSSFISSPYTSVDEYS

Neuromedin-K receptor [2] = molecular target: T2, Neuromedin-K receptor (Meriones unguiculatus, UniProt Q2YHR0)
T2 sequence (Q2YHR0 whole entry): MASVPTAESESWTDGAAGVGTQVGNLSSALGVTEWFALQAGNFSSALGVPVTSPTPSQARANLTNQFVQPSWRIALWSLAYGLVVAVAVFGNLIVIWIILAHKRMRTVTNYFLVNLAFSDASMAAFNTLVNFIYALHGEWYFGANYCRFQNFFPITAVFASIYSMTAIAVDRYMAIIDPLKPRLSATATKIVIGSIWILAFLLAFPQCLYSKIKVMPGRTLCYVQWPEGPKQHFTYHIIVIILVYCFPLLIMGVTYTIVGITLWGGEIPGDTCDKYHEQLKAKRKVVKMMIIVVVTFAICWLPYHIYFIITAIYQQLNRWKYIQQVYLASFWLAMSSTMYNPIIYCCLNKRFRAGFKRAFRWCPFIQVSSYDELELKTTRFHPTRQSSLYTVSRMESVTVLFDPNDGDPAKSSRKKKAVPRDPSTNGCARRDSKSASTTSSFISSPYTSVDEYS

Neuromedin-K receptor [3] = molecular target: T3, Neuromedin-K receptor (Cavia porcellus, UniProt P30098)
T3 sequence (P30098 whole entry): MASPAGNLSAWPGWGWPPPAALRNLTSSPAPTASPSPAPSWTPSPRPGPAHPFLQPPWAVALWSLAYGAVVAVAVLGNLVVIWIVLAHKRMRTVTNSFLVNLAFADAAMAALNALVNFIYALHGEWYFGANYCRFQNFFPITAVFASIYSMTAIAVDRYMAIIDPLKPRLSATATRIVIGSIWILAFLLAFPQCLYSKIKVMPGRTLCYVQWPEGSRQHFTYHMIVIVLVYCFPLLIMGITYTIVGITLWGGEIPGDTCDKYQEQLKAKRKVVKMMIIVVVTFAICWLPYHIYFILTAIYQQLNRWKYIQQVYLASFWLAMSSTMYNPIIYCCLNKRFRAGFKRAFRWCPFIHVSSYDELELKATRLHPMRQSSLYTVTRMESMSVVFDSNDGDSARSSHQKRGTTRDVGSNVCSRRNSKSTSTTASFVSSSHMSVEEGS

Neuromedin-K receptor [4] = molecular target: T4, Neuromedin-K receptor (Mus musculus, UniProt P47937)
T4 sequence (P47937 whole entry): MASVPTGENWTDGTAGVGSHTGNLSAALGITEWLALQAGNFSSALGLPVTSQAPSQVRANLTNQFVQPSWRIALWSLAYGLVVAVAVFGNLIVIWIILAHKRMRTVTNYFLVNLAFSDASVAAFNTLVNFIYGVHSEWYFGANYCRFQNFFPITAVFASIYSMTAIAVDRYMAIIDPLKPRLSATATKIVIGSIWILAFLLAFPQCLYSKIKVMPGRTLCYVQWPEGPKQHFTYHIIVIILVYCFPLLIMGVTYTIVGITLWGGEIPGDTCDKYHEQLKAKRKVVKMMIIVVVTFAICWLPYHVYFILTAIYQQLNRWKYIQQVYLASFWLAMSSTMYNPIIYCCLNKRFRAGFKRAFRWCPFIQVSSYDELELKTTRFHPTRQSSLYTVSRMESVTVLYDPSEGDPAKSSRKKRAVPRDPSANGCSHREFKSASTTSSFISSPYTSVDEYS

Substance-K receptor [5] = molecular target: T5, Substance-K receptor (Cavia porcellus, UniProt Q64077)
T5 sequence (Q64077 whole entry): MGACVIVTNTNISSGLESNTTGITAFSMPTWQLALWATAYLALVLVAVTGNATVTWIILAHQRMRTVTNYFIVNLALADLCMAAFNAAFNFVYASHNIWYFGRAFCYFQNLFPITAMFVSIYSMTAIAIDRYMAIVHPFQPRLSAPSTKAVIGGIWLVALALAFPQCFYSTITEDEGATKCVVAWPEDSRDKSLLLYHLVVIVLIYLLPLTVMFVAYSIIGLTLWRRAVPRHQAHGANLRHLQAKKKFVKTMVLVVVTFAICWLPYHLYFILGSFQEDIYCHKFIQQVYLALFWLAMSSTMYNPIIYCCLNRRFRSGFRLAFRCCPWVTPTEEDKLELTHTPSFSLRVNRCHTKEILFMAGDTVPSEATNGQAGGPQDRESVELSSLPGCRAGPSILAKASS

Substance-P receptor [6] = molecular target: Substance-P receptor (Rattus norvegicus, UniProt P14600)
Substance-K receptor [7] = molecular target: T6, Substance-K receptor (Homo sapiens, UniProt P21452)
T6 sequence (P21452 whole entry): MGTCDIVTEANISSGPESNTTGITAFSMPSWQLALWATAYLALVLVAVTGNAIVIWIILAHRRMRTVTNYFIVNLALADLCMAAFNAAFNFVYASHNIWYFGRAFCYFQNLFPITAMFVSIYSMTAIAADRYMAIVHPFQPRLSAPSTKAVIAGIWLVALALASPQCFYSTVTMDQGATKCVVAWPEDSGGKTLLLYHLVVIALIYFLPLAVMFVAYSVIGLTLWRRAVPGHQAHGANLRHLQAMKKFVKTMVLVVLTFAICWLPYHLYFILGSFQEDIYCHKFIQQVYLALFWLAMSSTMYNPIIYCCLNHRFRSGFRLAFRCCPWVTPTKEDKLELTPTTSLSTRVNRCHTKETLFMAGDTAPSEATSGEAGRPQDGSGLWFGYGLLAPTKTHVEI

Substance-P receptor [8] = molecular target: Substance-P receptor (Cavia porcellus, UniProt P30547)
Substance-K receptor [9] = molecular target: T7, Substance-K receptor (Rattus norvegicus, UniProt P16610)
T7 sequence (P16610 whole entry): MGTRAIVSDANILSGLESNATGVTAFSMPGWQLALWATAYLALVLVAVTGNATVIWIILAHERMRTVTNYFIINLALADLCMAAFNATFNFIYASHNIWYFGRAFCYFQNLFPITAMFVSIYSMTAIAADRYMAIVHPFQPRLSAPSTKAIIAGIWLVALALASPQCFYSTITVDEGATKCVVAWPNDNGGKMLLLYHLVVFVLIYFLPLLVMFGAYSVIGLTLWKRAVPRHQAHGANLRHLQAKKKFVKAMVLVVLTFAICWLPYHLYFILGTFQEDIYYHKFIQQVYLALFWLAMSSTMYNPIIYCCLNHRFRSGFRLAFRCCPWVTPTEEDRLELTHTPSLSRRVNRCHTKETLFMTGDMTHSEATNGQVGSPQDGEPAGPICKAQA

Chain of Substance-P receptor (Rattus norvegicus, UniProt P14600) (P14600 whole entry): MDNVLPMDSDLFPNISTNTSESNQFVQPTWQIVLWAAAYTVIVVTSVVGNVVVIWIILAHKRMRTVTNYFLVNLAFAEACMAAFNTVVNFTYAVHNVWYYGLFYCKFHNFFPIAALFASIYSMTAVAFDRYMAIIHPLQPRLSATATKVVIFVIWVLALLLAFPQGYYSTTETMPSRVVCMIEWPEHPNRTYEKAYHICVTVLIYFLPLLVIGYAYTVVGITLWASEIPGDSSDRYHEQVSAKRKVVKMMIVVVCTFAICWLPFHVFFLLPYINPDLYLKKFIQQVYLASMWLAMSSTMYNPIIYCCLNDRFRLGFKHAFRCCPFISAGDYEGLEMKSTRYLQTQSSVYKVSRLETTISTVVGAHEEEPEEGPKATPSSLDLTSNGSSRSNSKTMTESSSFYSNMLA
Chain of Substance-P receptor (Cavia porcellus, UniProt P30547) (P30547 whole entry): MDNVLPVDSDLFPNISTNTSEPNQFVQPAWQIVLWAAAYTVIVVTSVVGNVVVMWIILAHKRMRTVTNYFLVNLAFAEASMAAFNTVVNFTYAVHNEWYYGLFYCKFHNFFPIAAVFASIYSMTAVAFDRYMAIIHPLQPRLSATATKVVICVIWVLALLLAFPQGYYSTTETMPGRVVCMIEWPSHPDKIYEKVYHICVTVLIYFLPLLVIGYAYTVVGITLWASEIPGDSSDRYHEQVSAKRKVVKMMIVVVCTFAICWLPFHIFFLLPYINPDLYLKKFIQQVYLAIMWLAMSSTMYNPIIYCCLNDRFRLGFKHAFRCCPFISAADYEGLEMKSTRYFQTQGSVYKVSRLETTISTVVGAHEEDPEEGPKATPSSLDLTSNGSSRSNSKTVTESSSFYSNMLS

| Ki (Neuromedin-K receptor [1]) | Ki (Neuromedin-K receptor [2]) | Ki (Neuromedin-K receptor [3]) | Ki (Neuromedin-K receptor [4]) | Ki (Substance-K receptor [5]) | Ki (Substance-P receptor [6]) | Ki (Substance-K receptor [7]) | Ki (Substance-P receptor [8]) | Ki (Substance-K receptor [9]) | Structure (SMILES) |
| --- | --- | --- | --- | --- | --- | --- | --- | --- | --- |
| 0.34 nM | 0.16 nM | 0.43 nM | 0.053 nM |  |  |  |  |  | CSCC[C@H](NC(=O)[C@H](CC(C)C)NC(=O)CNC(=O)[C@H](Cc1ccccc1)N(C)C(=O)[C@H](Cc1ccccc1)NC(=O)[C@H](Cc1ccccc1)NC(=O)[C@H](CC(=O)O)NC(=O)[C@H](Cc1cnc[nH]1)NC(=O)[C@H](CCSC)NC(=O)[C@@H](N)CC(=O)O)C(N)=O [NKB [MePhe7]] (H-DMHDFF[NMeF]GLM-NH2) |
|  |  |  |  | 2.3 nM |  |  |  |  | CSCC[C@H](NC(=O)[C@H](CC(C)C)NC(=O)CNC(=O)[C@@H](NC(=O)[C@H](Cc1ccccc1)NC(=O)[C@H](CO)NC(=O)[C@H](CC(=O)O)NC(=O)[C@@H](NC(=O)[C@H](CCCCN)NC(=O)[C@@H](N)Cc1cnc[nH]1)[C@@H](C)O)C(C)C)C(N)=O [Neurokinin alpha] |
| 206 nM | 544 nM | 21 nM | > 10000 nM | 71 nM | 1.07 nM and 1.15 nM | 24 nM | 0.23 nM | 34 nM | CC(C)(C(N)=O)C1CCN(CCC2(c3ccc(Cl)c(Cl)c3)CN(C(=O)Cc3cc(C(F)(F)F)cc(C(F)(F)F)c3)CCO2)CC1 (centres undefined) [SSR240600] |
